Values joined by “and” are separate entries in the source; they are usually repeats but may differ in a detail not shown here. Identical values can stand only once. Like-named read-outs stand apart in the source and are kept apart here.
Assays:
Auyo microsomes [1] = test: Microsomal P450 activity with model probe substrate DEF, Auyo; format: biochemical, Anopheles coluzzii; conditions: 10 µM DEF, 0.05 µM P450, read for 15 min
Procedure: (§1) P450 activity was determined in the prepared microsomes from both Auyo and Ngousso strains using diethoxyfluorescein (DEF) as the model fluorogenic substrate using the methods earlier described. Briefly, the enzyme-buffer mix consisted of 0.05 µM of cytochrome P450 (microsomes), 50 mM potassium phosphate buffer, pH 7.4, 0.5 µM cytochrome b5 and 10 µM DEF. To initiate the reactions in a 96-well plates (Thermo Labsystems, Basingstoke, UK), a NADPH ([…]) regeneration mix (consisting of 1mM glucose-6-phosphate, 0.1 M NADP+, 0.25mM magnesium chloride, IU/ml glucose-6-phosphate dehydrogenase and 50 mM potassium phosphate buffer pH 7.4) was added in the positive replicates whereas the same buffer with no NADPH was added in the negative wells. Using the excitation (482 nm) and emission (520 nm) wavelengths of DEF, the […] was read for 15 min, and the relative fluorescence unit per min per picomole of the P450 (RFU/min/pmol of P450) was determined.

Ngousso microsomes = test: Microsomal P450 activity with model probe substrate DEF, Ngousso; format: biochemical, Anopheles coluzzii; conditions: 10 µM DEF, 0.05 µM P450, read for 15 min
Procedure: as §1

[2] = tested on: microsomes prepared from pyrethroid-resistant Anopheles coluzzii (Auyo); conditions: Auyo (field-resistant) larval microsomes, 0.05 µM P450, 20 µM PAH, 2 h, 30 °C, +NADPH vs -NADPH, mean ± SD of three replicates
Procedure: To compare the metabolic activity of the microsomes and the recombinant cytochrome P450s towards PAH metabolism assays were conducted side by side as described earlier. The NADPH regeneration mixture (consisting of 0.1 M NADP+, 50mM potassium phosphate buffer, pH 7.4, 1 mM glucose-6-phosphate, 0.25 mM magnesium chloride and 1U/ml glucose-6-phosphate dehydrogenase) was used in the positive replicates. For the negatives, the same buffer with no added NADP + was used. Enzyme-buffer mix comprised of 0.05 µM recombinant P450 or microsome, 0.4 µM cytochrome b5, 50 mM potassium phosphate buffer pH 7.4 and 20 µM of the PAH substrates. To initiate the reactions, regeneration mixture was added to the enzyme-buffer mix in a 1:1 ratio (total of 200 µl) following activation for 5 min at 30 °C and 1200 rpm shaking. The reaction was run for 2 h at 30 °C with 200 rpm shaking. To stop the reaction, 200 µl of ice-cold High Performance Liquid Chromatography (HPLC) grade acetonitrile was added, followed by additional shaking for 5 min to precipitate the proteins. The mixture was kept on ice for 10 min before centrifuging at 16,000xg for 20 min. […]
(§2) Using the Agilent HPLC 1200 infinity series, analysis of the PAHs metabolism was conducted. The HPLC conditions consisted of mobile phases of HPLC grade acetonitrile and water in the ratio of 80/20 and detected at a wavelength of 254 nm.

recombinant CYP6P3 = conditions: recombinant CYP6P3, 0.05 µM P450, 20 µM PAH, 2 h, 30 °C, +NADPH vs -NADPH
Procedure: (§3) The recombinant P450s used in this study were acquired from the enzyme characterization group (ECG) leader, Dr. Mark J.I. Paine of the Vector Biology Department, Liverpool School of Tropical Medicine. All the P450s were expressed from field-resistant populations of An. gambiae except for CYP6P9a, which was expressed from An. funestus. The heterologous expression of the P450s was conducted according to the previously described approaches. Briefly, P450s were expressed by using ompA and pelB signal sequences to direct P450 and An. gambiae CPR (AgCPR), respectively, to the inner membrane of E. coli a functional monooxygenase. The P450 sequences were amplified from cDNA and fused to the ompA signal peptides in simple PCR reactions. This is followed by ligation of the digested fragments into linearized expression vector pCWori+, thereby creating a construct pB13:ompA + 2-P450. Competent JM109 cells were co-transformed with plasmids pB13:ompA + 2-P450 and pACYC-AgCPR for the expression of functional P450 and An. gambiae CPR, respectively. Colonies carrying the two plasmids as confirmed by the colony PCR are used for a 12–14 h starter culture overnight. Typically, 0.2 L cultures were supplemented with 2 mL from the starter cultures and incubated at 37 °C and 200 rpm shaking while the absorbance at 600 nm was being monitored. When the OD reached 0.6–0.8, the cultures were cooled down to 25 °C for 30 min with shaking at 150 rpm. Induction with 1 mM isopropyl β-D-1-thiogalactopyranoside (IPTG) and 0.5 mM 5-aminolaevulinic acid (ALA) was conducted. Determinations of the P450 content and CPR activity were conducted using the procedure of [61] and [60], respectively.
(§4) To compare the metabolic activity of the microsomes and the recombinant cytochrome P450s towards PAH metabolism assays were conducted side by side as described earlier. The NADPH regeneration mixture (consisting of 0.1 M NADP+, 50mM potassium phosphate buffer, pH 7.4, 1 mM glucose-6-phosphate, 0.25 mM magnesium chloride and 1U/ml glucose-6-phosphate dehydrogenase) was used in the positive replicates. For the negatives, the same buffer with no added NADP + was used. Enzyme-buffer mix comprised of 0.05 µM recombinant P450 or microsome, 0.4 µM cytochrome b5, 50 mM potassium phosphate buffer pH 7.4 and 20 µM of the PAH substrates. To initiate the reactions, regeneration mixture was added to the enzyme-buffer mix in a 1:1 ratio (total of 200 µl) following activation for 5 min at 30 °C and 1200 rpm shaking. The reaction was run for 2 h at 30 °C with 200 rpm shaking. To stop the reaction, 200 µl of ice-cold High Performance Liquid Chromatography (HPLC) grade acetonitrile was added, followed by additional shaking for 5 min to precipitate the proteins. The mixture was kept on ice for 10 min before centrifuging at 16,000xg for 20 min. The supernatants were filtered through 0.45 μm PTFE filters (ThermoFisher Scientific, MA, USA) and filtrate transferred to HPLC vials for onward analysis.
as §2

recombinant CYP6Z2 = tested on: recombinant CYP6Z2
Procedure: as §3, §4, §2

recombinant CYP6Z3 = tested on: recombinant CYP6Z3
Procedure: as §3, §4, §2

Auyo microsomes [3] = test: Fluorene turnover assay using microsomes; format: in vitro ADME, Anopheles coluzzii; conditions: fluorene 30 µM, run time 15-150 min
Procedure: Because of the higher percentage of depletion observed in the Auyo microsomal metabolism of fluorene, it was chosen to be analysed further for its turnover and kinetic studies. To understand the turnover rates of the fluorene depletions, reaction run time was varied between 15 and 150 min. Specific points used were 15, 30, 45, 60, 90, 120 and 150 min while the fluorene concentration was maintained at 30 µM in all these time points.

Auyo microsomal P450 = test: in vitro; format: in vitro ADME, Anopheles coluzzii
Procedure: For the determination of steady-state kinetic parameters, assays were conducted for 30 min with 0.05 µM microsomal P450 while varying the concentrations of fluorene (0–600 µM). Kinetics plot of velocity against the substrate concentrations was made using the least squares non-linear regression in GraphPad Prism 6.03 Software (GraphPad Inc., La Jolla, CA, USA) that fits into the canonical Michaelis-Menten model as previously described for pyrethroid insecticides.

CYP9K1 = format: in vitro ADME, An. gambiae; conditions: Anopheles gambiae, 2 h, 20 µM, pH 7.4
Procedure: (§5) To compare the metabolic activity of the microsomes and the recombinant cytochrome P450s towards PAH metabolism assays were conducted side by side as described earlier [38, 43]. The NADPH regeneration mixture (consisting of 0.1 M NADP+, 50mM potassium phosphate buffer, pH 7.4, 1 mM glucose-6-phosphate, 0.25 mM magnesium chloride and 1U/ml glucose-6-phosphate dehydrogenase) was used in the positive replicates. For the negatives, the same buffer with no added NADP + was used. Enzyme-buffer mix comprised of 0.05 µM recombinant P450 or microsome, 0.4 µM cytochrome b5, 50 mM potassium phosphate buffer pH 7.4 and 20 µM of the PAH substrates. To initiate the reactions, regeneration mixture was added to the enzyme-buffer mix in a 1:1 ratio (total of 200 µl) following activation for 5 min at 30 °C and 1200 rpm shaking. The reaction was run for 2 h at 30 °C with 200 rpm shaking. […]
(§6) Using the Agilent HPLC 1200 infinity series, analysis of the PAHs metabolism was conducted. The HPLC conditions consisted of mobile phases of HPLC grade acetonitrile and water in the ratio of 80/20 and detected at a wavelength of 254 nm. […] Percentage depletions for each compound were calculated in both the microsomal and recombinant P450 studies. […]

CYP6P4 = format: in vitro ADME, An. gambiae; conditions: Anopheles gambiae, 2 h, 20 µM, pH 7.4
Procedure: as §5, §6

CYP9J5 = format: in vitro ADME, An. gambiae; conditions: Anopheles gambiae, 2 h, 20 µM, pH 7.4
Procedure: as §5, §6

[4] = tested on: all the recombinant P450s used in this study (CYPs 6M2, 6Z2, 6Z3, 9J5, 6P3, 6P4, 6P5, CYP9K1, CYP6P9a); test: In vitro metabolism of PAHs with the whole recombinant P450 panel; format: in vitro ADME, An. gambiae / An. funestus; conditions: Anopheles gambiae; Anopheles funestus (CYP6P9a), 2 h, 20 µM, pH 7.4
Procedure: as §5, §6

`CCOc1ccc2c(c1)Oc1cc(OCC)ccc1C21OC(=O)c2ccccc21` [DEF, diethoxyfluorescein] showed a DEF activity (Auyo microsomes [1]) of 4.9 RFU/min/pmole P450 and a DEF activity (Ngousso microsomes) of 4.4 RFU/min/pmole P450.
With `c1ccc2c(c1)-c1cccc3cccc-2c13` [fluoranthene] the percentage depletion [2] was 22.8 ± 5.2%, the percentage depletion (recombinant CYP6P3) was “more than 40%” and the “metabolic activity (in words)” value (recombinant CYP6Z2; recombinant CYP6Z2) was “strong metabolic activity”. The “metabolic activity (in words)” value (recombinant CYP6Z3; recombinant CYP6Z3) was “strong metabolic activity”.
In the case of `c1ccc2c(c1)Cc1ccccc1-2` [fluorene], the Turnover (Auyo microsomes [3]) is reported as 37.016 min⁻¹ and 37.02 min⁻¹, the Km at 30 min (Auyo microsomal P450; Anopheles coluzzii) is reported as 58.7 µM and the “Catalytic rate (Kcat)” value (Auyo microsomal P450; Auyo microsomes, 0.05 µM microsomal P450, 30 min, fluorene 0–600 µM) is reported as 4.196 min⁻¹ and 4.20 ± 0.44 min⁻¹. The catalytic efficiency (Auyo microsomal P450; Auyo microsomes, fluorene) was 0.0715 ± 0.026 min⁻¹ µM⁻¹, the “metabolic activity (in words)” value (recombinant CYP6Z2) was “strong metabolic activity” and the “metabolic activity (in words)” value (recombinant CYP6Z3) was “strong metabolic activity”. For the same compound, the percentage depletion (CYP9K1) was 8.5%, the percentage depletion (CYP6P4) was 9.3% and the percentage depletion (CYP9J5) was 7.7%.
With `c1ccc2ccccc2c1` [naphthalene] the percentage depletion [4] was less than 10%.
